The results in this text go back to patent publication US20220274979A1 (Bayer Pharma Aktiengesellschaft, priority 2018, published 2022).

A word on the IC50: it is the concentration that inhibits the measured activity by half. Read a low IC50 as greater potency.

Assay [1] concerns the target T1, hSOS1 (hSOS1-mediated nucleotide exchange of hK-RasG12C) (Homo sapiens, UniProt Q07889).
T1 construct: hSOS1 (amino acid 564-1049); made in house; host or cells: E. coli BL21 (DE3)
T1 sequence (Q07889 with tags, fused parts or gaps): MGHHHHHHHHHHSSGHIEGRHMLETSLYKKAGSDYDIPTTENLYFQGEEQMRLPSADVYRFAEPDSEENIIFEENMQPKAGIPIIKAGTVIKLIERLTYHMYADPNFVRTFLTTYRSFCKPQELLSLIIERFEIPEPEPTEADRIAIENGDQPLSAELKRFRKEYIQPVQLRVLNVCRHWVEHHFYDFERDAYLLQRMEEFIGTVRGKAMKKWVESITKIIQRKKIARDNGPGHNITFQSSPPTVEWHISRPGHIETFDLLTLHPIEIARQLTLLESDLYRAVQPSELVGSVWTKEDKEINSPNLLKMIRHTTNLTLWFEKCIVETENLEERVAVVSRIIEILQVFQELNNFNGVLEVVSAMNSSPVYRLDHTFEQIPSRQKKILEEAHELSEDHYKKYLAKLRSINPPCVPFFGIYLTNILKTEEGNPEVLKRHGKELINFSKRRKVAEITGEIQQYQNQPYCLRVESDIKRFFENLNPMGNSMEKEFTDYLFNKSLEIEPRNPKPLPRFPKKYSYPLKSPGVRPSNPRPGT
The experiment in a line: Biochemical Assay 2: hK-RasG12C activation assay by hSOS1 at high GTP concentration (HTRF nucleotide exchange). Conditions: high GTP (50 μM GTP). The source says: Biochemical Assay 2: hK-RasG12C Activation Assay by hSOS1 at High GTP Concentration
This assay quantifies human SOS1-mediated nucleotide exchange of human K-Ras^G12C (hK-RasG12C) preloaded with a fluorescent […] and in presence of an excess of free GTP. Loaded hK-RasG12C generates a high HTRF-signal by energy transfer from antiGST-Terbium (FRET donor) bound to hK-Ras to the loaded fluorescent GDP analog (FRET-acceptor). hSOS1 activity exchanges the fluorescent GDP for non-fluorescent GTP and therefore leads to a reduction of the HTRF signal.
The fluorescent GDP-analog EDA-GDP-Dy647P1 (2′/3′-O-(2-Aminoethyl-carbamoyl)-guanosine-5′-diphosphate labelled with Dy647P1 (Dyomics GmbH, Germany)) was synthesized by Jena Biosciences GmbH (Germany) and supplied as a 1 mM aqueous solution.
Concentrations of protein batches used were optimized to be within the linear range of the HTRF signal.
Addition of 20 μl 1 M MgCl2 (Sigma) to final 40 mM and store on ice. Purification into buffer (10 mM HEPES pH 7.4 (Applichem), 150 mM NaCl (Sigma), 5 mM MgCl2 (Sigma)) by use of a PD-Minitrap desalting column (GE Healthcare). Concentration of 1 ml purified hK-Ras-GDP-Dy647 is approx. 4-5 μM.
(§1) The assay buffer contained 10 mM HEPES pH 7.4 (Applichem), 150 mM NaCl (Sigma), 5 mM MgCl2 (Sigma), 1 mM DTT (Thermofisher), 0.05% BSA Fraction V, pH 7.0, (ICN Biomedicals), 0.0025% (v/v) Igepal (Sigma).
A Ras working solution was prepared in assay buffer containing typically 80 nM loaded GST-hK-RasG12C-EDA-GDP-Dy647P1 and 2 nM antiGST-Tb (Cisbio, France).
Alternatively, the inhibitor control solution was prepared by supplementing the hSOS1 working solution with 20 μM of 6,7-dimethoxy-N-[(1R)-1-(1-naphthyl)ethyl]quinazolin-4-amine which was used to calibrate the assay.
(§2) Fifty nl of a 100-fold concentrated solution of the test compound in DMSO were transferred into a black microtiter test plate (384 or 1536, Greiner Bio-One, Germany) For this, either a Hummingbird liquid handler (Digilab, Mass., USA) or an Echo acoustic system (Labcyte, Calif., USA) was used.
All steps of the assay were performed at 20° C. A volume of 2.5 μl of the Ras working solution was added to all wells of the test plate using a Multidrop dispenser (Thermo Labsystems). After 2 min. preincubation, 2.5 μl of the hSOS1 working solution were added to all wells except for those wells at the side of the test plate that were subsequently filled with 2.5 μl of the inhibitor control solution. After 20 min. incubation the fluorescence was measured with a Pherastar (BMG, Germany) using the HTRF module (excitation 337 nm, emission 1:620 nm, emission 2:665 nm).
(§3) IC50 values were calculated by 4-Parameter fitting using a commercial software package (Genedata Screener, Switzerland).
Background: Time-resolved FRET reads energy transfer from a long-lived donor to a nearby acceptor.

Assay [2] concerns the target T2, hSOS1 (hSOS1-mediated loading of hK-RasG12C-GDP) (Homo sapiens, UniProt Q07889).
T2 construct: hSOS1 (amino acid 564-1049); made in house; host or cells: E. coli BL21 (DE3)
T2 sequence (Q07889 with tags, fused parts or gaps): T1 sequence (Q07889 with tags, fused parts or gaps)
The experiment in a line: Biochemical Assay 3: hK-RasG12C activation assay by hSOS1 (loading with fluorescent GTP analog, HTRF). Conditions: no GTP.
From the text: Biochemical Assay 3: hK-RasG12C Activation Assay by hSOS1
K-Ras is a small GTPase that can bind GDP and GTP. The guanine nucleotide exchange factor SOS1 catalyzes the activation of K-Ras by promoting the exchange of GDP to GTP. SOS1 binds to K-Ras-GDP thereby opening the GDP-binding pocket to facilitate GDP release. Rebinding of excess nucleotide leads to dissociation of the K-Ras-SOS1 intermediate complex leaving K-Ras loaded with the nucleotide.
This assay quantifies human SOS1-(hSOS1-)mediated loading of human K-Ras^G12C-GDP (hK-RasG12C-GDP) with a fluorescent GTP-analog. Detection of successful loading is achieved by measuring homogenous time-resolved fluorescence resonance energy transfer (HTRF) from antiGST-Terbium (FRET donor) bound to GST-hK-RasG12C (see below) to the loaded fluorescent GTP analog (FRET-acceptor).
The fluorescent GTP-analog EDA-GTP-Dy647P1 (2′/3′-O-(2-Aminoethyl-carbamoyl)-guanosine-5′-triphosphate labelled with Dy647P1 (Dyomics GmbH, Germany)) was synthesized by Jena Biosciences GmbH (Germany) and supplied as a 1 mM aqueous solution.
as §1
Concentrations of protein batches used were optimized to be within the linear range of the HTRF signal. A hRas working solution was prepared in assay buffer containing typically 100 nM GST-hK-RasG12C and 2 nM antiGST-Tb (Cisbio, France). A hSOS1 working solution was prepared in assay buffer containing typically 20 nM hSOS1 and 200 nM EDA-GTP-Dy647P1. An inhibitor control solution was prepared in assay buffer containing 200 nM EDA-GTP-Dy647P1 without hSOS1.
as §2
All steps of the assay were performed at 20° C. A volume of 2.5 μl of the hRas working solution was added to all wells of the test plate using a Multidrop dispenser (Thermo Labsystems). After 10 min. preincubation, 2.5 μl of the hSOS1 working solution were added to all wells except for those wells at the side of the test plate that were subsequently filled with 2.5 μl of the inhibitor control solution. After […] incubation the fluorescence was measured with a Pherastar (BMG, Germany) using the HTRF module (excitation 337 nm, emission 1: 620 nm, emission 2:665 nm).
as §3

On to `CC(=O)NC1CCN(c2cc3c(N[C@H](C)c4cccc(Br)c4)nc(C)nc3cn2)C1` (mixture of isomers) [Example 42, N-[1-(4-{[(1R)-1-(3-bromophenyl)ethyl]amino}-2-methylpyrido[3,4-d]pyrimidin-6-yl)pyrrolidin-3-yl]acetamide], for which the results for the IC50 in assay [1] and in assay [2] were 215 nM and 366 nM, respectively.

With `Cc1nc(NC(C)c2ccc(-c3ccccc3CN(C)C)s2)c2cc(C3CCN(C)C3=O)ncc2n1` (mixture of isomers) [Example 69, 3-(4-{[1-(5-{2-[(dimethylamino)methyl]phenyl}thiophen-2-yl)ethyl]amino}-2-methylpyrido[3,4-d]pyrimidin-6-yl)-1-methylpyrrolidin-2-one], the IC50 was 98.3 nM in assay [1] and 141 nM in assay [2].

As for `Cc1nc(NC(C)c2ccc(-c3ccccc3CN(C)C)s2)c2cc(C3(O)CCN(C)C3=O)ncc2n1` (mixture of isomers) [Example 85, 3-(4-{[1-(5-{2-[(dimethylamino)methyl]phenyl}thiophen-2-yl)ethyl]amino}-2-methylpyrido[3,4-d]pyrimidin-6-yl)-3-hydroxy-1-methylpyrrolidin-2-one], the figures for the IC50 in assay [1] and in assay [2] were 214 nM and 212 nM, respectively.

As for `CCOc1cc2c(NC(C)c3cccc4sccc34)nc(C)nc2cn1` (stereo not shown) [Example 3, N-[1-(1-benzothiophen-4-yl)ethyl]-6-ethoxy-2-methylpyrido[3,4-d]pyrimidin-4-amine], the IC50 in assay [1] is 262 nM; in assay [2], 355 nM.

Take `COc1cc2c(NC(C)c3cccc4sccc34)nc(C)nc2cn1` (stereo not shown) [Example 4, N-[1-(1-benzothiophen-4-yl)ethyl]-6-methoxy-2-methylpyrido[3,4-d]pyrimidin-4-amine]: the IC50 in assay [1] is 423 nM; in assay [2], 555 nM.

Turning to `CCOc1cc2c(N[C@H](C)c3cccc(Br)c3)nc(C)nc2cn1` [Example 5, N-[(1R)-1-(3-bromophenyl)ethyl]-6-ethoxy-2-methylpyrido[3,4-d]pyrimidin-4-amine], the IC50 in assay [1] came to 994 nM; in assay [2], 2150 nM.

Regarding `CCOc1cc2c(N[C@H](C)c3cccc(Cl)c3)nc(C)nc2cn1` [Example 6], the IC50 was determined as 1120 nM in assay [1] and 1690 nM in assay [2].

For `CCOc1cc2c(N[C@H](C)c3cccc(S(C)(=O)=O)c3)nc(C)nc2cn1` [Example 7, 6-ethoxy-2-methyl-N-{(1R)-1-[3-(methylsulfonyl)phenyl]ethyl}pyrido[3,4-d]pyrimidin-4-amine], the IC50 in assay [1] came to 1300 nM; in assay [2], 2380 nM.

For the compound `COc1cc2c(N[C@H](C)c3ccc(F)c(Cl)c3)nc(C)nc2cn1` [Example 8], the IC50 in assay [1] is 4890 nM; in assay [2] it was above 20000 nM.

For `Cc1nc(N[C@H](C)c2ccc(F)cc2)c2cc(F)ncc2n1` [Example 9], the IC50 in assay [1] is 17900 nM; in assay [2], above 20000 nM.

For `Cc1nc(N[C@H](C)c2ccc(F)cc2)c2cc(OCC3CCOCC3)ncc2n1` [Example 11, N-[1R)-1-(4-fluorophenypethyl]-2-methyl-6-(tetrahydro-2H-pyran-4-ylmethoxy)-pyrido[3,4-d]pyrimidin-4-amine], the IC50 is 1960 nM in assay [1] and 2490 nM in assay [2].

Turning to `COc1cc2c(N[C@H](C)c3ccc(F)c(C4CC4)c3)nc(C)nc2cn1` [Example 12], the IC50 in assay [1] stood at 6450 nM; in assay [2], 8170 nM.

Regarding `CCOc1cc2c(N[C@H](C)c3ccc(Br)cc3)nc(C)nc2cn1` [Example 13, N-[(1R)-1-(4-bromophenyl)ethyl]-6-ethoxy-2-methylpyrido[3,4-d]pyrimidin-4-amine], the IC50 was 1780 nM in assay [1] and 7980 nM in assay [2].

For `COc1cc2c(NC(C)c3cccc4c3cnn4C)nc(C)nc2cn1` (stereo not shown) [Example 14, 6-methoxy-2-methyl-N-[1-(1-methyl-1H-indazol-4-yl)ethyl]pyrido[3,4-d]pyrimidin-4-amine], the IC50 in assay [1] is 1950 nM; in assay [2], 12600 nM.

In the case of `Cc1nc(N[C@H](C)c2ccc(F)cc2)c2cc(OC(C)C)ncc2n1` [Example 15], the results for the IC50 in assay [1] and in assay [2] were 1900 nM and 8790 nM, respectively.

Regarding `COc1cc2c(NC(C)c3cccc4nn(C)cc34)nc(C)nc2cn1` (stereo not shown) [Example 17, 6-methoxy-2-methyl-N-[1-(2-methyl-2H-indazol-4-yl)ethyl]pyrido[3,4-d]pyrimidin-4-amine], the IC50 in assay [1] is 7730 nM; in assay [2] it was at least 40000 nM.

`CCOc1cc2c(N[C@H](C)c3ccc(C#N)cc3)nc(C)nc2cn1` [Example 18, 4-{(1R)-1-[(6-ethoxy-2-methylpyrido[3,4-d]pyrimidin-4-yl)amino]ethyl}benzonitrile]: the IC50 in assay [1] came out at 1010 nM; in assay [2], 4540 nM.

Take `Cc1nc(N[C@H](C)c2cccc(Br)c2)c2nc(OCc3ccccc3)ncc2n1` [Example 20, 6-(benzyloxy)-N-[(1R)-1-(3-bromophenyl)ethyl]-2-methylpyrimido[5,4-d]pyrimidin-4-amine]: the concentration for half-maximal inhibition (IC50) is above 20000 nM in assay [1] and at least 40000 nM in assay [2].

`Cc1nc(N[C@H](C)c2cccc(Br)c2)c2nc(N(C)C)ncc2n1` [Example 21]: the values for the IC50 in assay [1] and in assay [2] were above 20000 nM and at least 40000 nM, respectively.

In the case of `Cc1nc(N[C@H](C)c2cccc(Br)c2)c2nc(N3CCOCC3)ncc2n1` [Example 22, N-[(1R)-1-(3-bromophenyl)ethyl]-2-methyl-6-(morpholin-4-yl)pyrimido[5,4-d]pyrimidin-4-amine], the IC50 in assay [1] is 1960 nM; in assay [2], 12500 nM.
